Results taken from patent publication US20260262643A1, “HERBICIDAL BENZOXAZINES” (FMC CORPORATION, priority 2022, published 2026).

How the values were obtained:
kochia [1] = experiment: Test C postemergence; type: in vivo, Bassia scoparia; settings: 10 days, 0 to 100 scale (0 no effect, 100 complete control)
Summary of the method: (§1)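 Test material, in non-phytotoxic solvent with surfactant, was sprayed on the soil directly after seeding (preemergence) or on young plants of 2–10 cm with one to two leaves (postemergence). Greenhouse, 10 days; 0–100 visual control scale.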

soybean [2] = experiment: Test C postemergence; type: in vivo, Glycine max; settings: 10 days, 0 to 100 scale (0 no effect, 100 complete control)
Summary of the method: as §1

oat, wild [3] = experiment: Test C postemergence; type: in vivo, Avena fatua; settings: 10 days, 0 to 100 scale (0 no effect, 100 complete control)
Summary of the method: as §1

ducksalad = experiment: Test D flooded paddy test; type: in vivo, Heteranthera limosa; settings: 250 g ai/ha, applied to paddy water, visual rating after 13 to 14 days, scale 0 to 100 (0 no effect, 100 complete control)
Summary of the method: (§2)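 Seedlings reached the 2-leaf stage, then pots were flooded to 3 cm over the soil surface. Compound was applied into the water, depth was maintained, and plants stayed in the greenhouse 13 to 14 days before visual scoring (0–100) relative to controls.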

wheat [4] = experiment: Test C preemergence; type: in vivo, Triticum aestivum
Summary of the method: as §1

blackgrass [5] = experiment: Test C postemergence; type: in vivo, Alopecurus myosuroides; settings: 10 days, 0 to 100 scale (0 no effect, 100 complete control)
Summary of the method: as §1

foxtail, giant [6] = experiment: Test C preemergence; type: in vivo, Setaria faberi
Summary of the method: as §1

ryegrass, Italian [7] = experiment: Test C postemergence; type: in vivo, Lolium multiflorum; settings: 10 days, 0 to 100 scale (0 no effect, 100 complete control)
Summary of the method: as §1

corn [8] = experiment: Test C preemergence; type: in vivo, Zea mays
Summary of the method: as §1

ryegrass, Italian [9] = experiment: Test C preemergence; type: in vivo, Lolium multiflorum
Summary of the method: as §1

ragweed [10] = experiment: Test C preemergence; type: in vivo, Ambrosia artemisiifolia
Summary of the method: as §1

horseweed = experiment: Test C postemergence; type: in vivo, Erigeron canadensis; settings: 10 days, 0 to 100 scale (0 no effect, 100 complete control)
Summary of the method: as §1

galium = experiment: Test C postemergence; type: in vivo, Galium aparine; settings: 10 days, 0 to 100 scale (0 no effect, 100 complete control)
Summary of the method: as §1

ragweed [11] = experiment: Test C postemergence; type: in vivo, Ambrosia artemisiifolia; settings: 10 days, 0 to 100 scale (0 no effect, 100 complete control)
Summary of the method: as §1

wheat [12] = experiment: Test C postemergence; type: in vivo, Triticum aestivum; settings: 10 days, 0 to 100 scale (0 no effect, 100 complete control)
Summary of the method: as §1

rice = experiment: Test D flooded paddy test; type: in vivo, Oryza sativa; settings: 250 g ai/ha, applied to paddy water, visual rating after 13 to 14 days, scale 0 to 100 (0 no effect, 100 complete control)
Summary of the method: as §2

corn [13] = experiment: Test C postemergence; type: in vivo, Zea mays; settings: 10 days, 0 to 100 scale (0 no effect, 100 complete control)
Summary of the method: as §1

blackgrass [14] = experiment: Test C preemergence; type: in vivo, Alopecurus myosuroides
Summary of the method: as §1

barnyardgrass [15] = experiment: Test C postemergence; type: in vivo, Echinochloa crusgalli; settings: 10 days, 0 to 100 scale (0 no effect, 100 complete control)
Summary of the method: as §1

pigweed, palmer [16] = experiment: Test C preemergence; type: in vivo, Amaranthus palmeri
Summary of the method: as §1

kochia [17] = experiment: Test C preemergence; type: in vivo, Bassia scoparia
Summary of the method: as §1

soybean [18] = experiment: Test C preemergence; type: in vivo, Glycine max
Summary of the method: as §1

sedge, umbrella = experiment: Test D flooded paddy test; type: in vivo, Cyperus difformis; settings: 250 g ai/ha, applied to paddy water, visual rating after 13 to 14 days, scale 0 to 100 (0 no effect, 100 complete control)
Summary of the method: as §2

oat, wild [19] = experiment: Test C preemergence; type: in vivo, Avena fatua
Summary of the method: as §1

foxtail, giant [20] = experiment: Test C postemergence; type: in vivo, Setaria faberi; settings: 10 days, 0 to 100 scale (0 no effect, 100 complete control)
Summary of the method: as §1

barnyardgrass [21] = experiment: Test D flooded paddy test; type: in vivo, Echinochloa crus-galli; settings: 250 g ai/ha, applied to paddy water, visual rating after 13 to 14 days, scale 0 to 100 (0 no effect, 100 complete control)
Summary of the method: as §2

barnyardgrass [22] = experiment: Test C preemergence; type: in vivo, Echinochloa crusgalli
Summary of the method: as §1

pigweed, palmer [23] = experiment: Test C postemergence; type: in vivo, Amaranthus palmeri; settings: 10 days, 0 to 100 scale (0 no effect, 100 complete control)
Summary of the method: as §1

[24] = 500 g ai/ha, preemergence, 0 to 100 scale (0 no effect, 100 complete control)
[25] = Preemergence, 125 g ai/ha, 0 to 100 scale, 0 no effect, 100 complete control

With `Cc1cccc2c1OC(C(F)(F)F)CN2C(=O)c1ccnc(-n2cnc(C(C)C)n2)c1` (single isomer, unassigned) [Compound 320] the “Plant response rating, Kochia” value (kochia [1]; 500 g ai/ha, postemergence) was 80, the “Plant response rating, Kochia” value (kochia [1]; Postemergence, 125 g ai/ha) was 40 and the “Plant response rating, Soybean” value (soybean [2]; 500 g ai/ha, postemergence) was 100. The “Plant response rating, Soybean” value (soybean [2]; Postemergence, 125 g ai/ha) was 50, the “Plant response rating, Oat, Wild” value (oat, wild [3]; 500 g ai/ha, postemergence) was 10 and the “Plant response rating, Oat, Wild” value (oat, wild [3]; Postemergence, 125 g ai/ha) was 10. The “Plant response rating, Ducksalad (Flood)” value (ducksalad) was 0, the “Wheat plant response rating” value (wheat [4]; [24]) was 90 and the “Plant response rating, Wheat” value (wheat [4]; [25]) was 20. For the same compound, the “Plant response rating, Blackgrass” value (blackgrass [5]; 500 g ai/ha, postemergence) was 10, the “Plant response rating, Blackgrass” value (blackgrass [5]; Postemergence, 125 g ai/ha) was 0 and the “Foxtail, Giant plant response rating” value (foxtail, giant [6]; [24]) was 90. For the same compound, the “Plant response rating, Foxtail, Giant” value (foxtail, giant [6]; [25]) was 20, the “Plant response rating, Ryegrass, Italian” value (ryegrass, Italian [7]; 500 g ai/ha, postemergence) was 30 and the “Plant response rating, Ryegrass, Italian” value (ryegrass, Italian [7]; Postemergence, 125 g ai/ha) was 20. For the same compound, the “Corn plant response rating” value (corn [8]; [24]) was 30, the “Plant response rating, Corn” value (corn [8]; [25]) was 30 and the “Ryegrass, Italian plant response rating” value (ryegrass, Italian [9]; [24]) was 90. The “Plant response rating, Ryegrass, Italian” value (ryegrass, Italian [9]; [25]) was 80, the “Ragweed plant response rating” value (ragweed [10]; [24]) was 0 and the “Plant response rating, Ragweed” value (ragweed [10]; [25]) was 0. For the same compound, the “Plant response rating, Horseweed” value (horseweed; 500 g ai/ha, postemergence) was 40, the “Plant response rating, Horseweed” value (horseweed; Postemergence, 125 g ai/ha) was 10 and the “Plant response rating, Galium” value (galium; 500 g ai/ha, postemergence) was 70. For the same compound, the “Plant response rating, Galium” value (galium; Postemergence, 125 g ai/ha) was 50, the “Plant response rating, Ragweed” value (ragweed [11]; 500 g ai/ha, postemergence) was 50 and the “Plant response rating, Ragweed” value (ragweed [11]; Postemergence, 125 g ai/ha) was 0. The “Plant response rating, Wheat” value (wheat [12]; 500 g ai/ha, postemergence) was 30, the “Plant response rating, Wheat” value (wheat [12]; Postemergence, 125 g ai/ha) was 10 and the “Plant response rating, Rice (Flood)” value (rice) was 0. For the same compound, the “Plant response rating, Corn” value (corn [13]; 500 g ai/ha, postemergence) was 40, the “Plant response rating, Corn” value (corn [13]; Postemergence, 125 g ai/ha) was 10 and the “Blackgrass plant response rating” value (blackgrass [14]; [24]) was 60. For the same compound, the “Plant response rating, Blackgrass” value (blackgrass [14]; [25]) was 0, the “Plant response rating, Barnyardgrass” value (barnyardgrass [15]; 500 g ai/ha, postemergence) was 20 and the “Plant response rating, Barnyardgrass” value (barnyardgrass [15]; Postemergence, 125 g ai/ha) was 0. For the same compound, the “Pigweed, Palmer plant response rating” value (pigweed, palmer [16]; [24]) was 100, the “Plant response rating, Pigweed, Palmer” value (pigweed, palmer [16]; [25]) was 20 and the “Kochia plant response rating” value (kochia [17]; [24]) was 10. For the same compound, the “Plant response rating, Kochia” value (kochia [17]; [25]) was 10, the “Soybean plant response rating” value (soybean [18]; [24]) was 100 and the “Plant response rating, Soybean” value (soybean [18]; [25]) was 10. For the same compound, the “Plant response rating, Sedge, Umbrella (Flood)” value (sedge, umbrella) was 0, the “Oat, Wild plant response rating” value (oat, wild [19]; [24]) was 40 and the “Plant response rating, Oat, Wild” value (oat, wild [19]; [25]) was 10. The “Plant response rating, Foxtail, Giant” value (foxtail, giant [20]; 500 g ai/ha, postemergence) was 40, the “Plant response rating, Foxtail, Giant” value (foxtail, giant [20]; Postemergence, 125 g ai/ha) was 20 and the “Plant response rating, Barnyardgrass (Flood)” value (barnyardgrass [21]) was 0. The “Barnyardgrass plant response rating” value (barnyardgrass [22]; [24]) was 80, the “Plant response rating, Barnyardgrass” value (barnyardgrass [22]; [25]) was 30 and the “Plant response rating, Pigweed, Palmer” value (pigweed, palmer [23]; 500 g ai/ha, postemergence) was 50. The “Plant response rating, Pigweed, Palmer” value (pigweed, palmer [23]; Postemergence, 125 g ai/ha) was 0.
